Counter-ions that a name gives are not always drawn.

The subject of the first experiment is ATGL-KO iPSCs. In words: High throughput iPSC chemical screening, Oil Red O (ORO) lipid accumulation. For Z-score: test concentration or dose not given here. Format: cell-based, mouse.
Settings: not given
`CC(C)c1cccc(C(C)C)c1O` [Propofol] gave a Z-score of −0.9649.

The same experiment, now with this note: glycolytic switch compounds.
As for `Clc1ccc(C(Cn2ccnc2)OCc2csc3c(Cl)cccc23)c(Cl)c1` (centres unmarked) [Sertaconazole nitrate], the “Rank in normalized ORO score from screen” value was found to be 464.

Staying with this experiment, now noted: normalized ORO level vs DMSO-treated cells; compound present during 7 days differentiation, 96-well; negative = decrease in lipid accumulation.
Turning to `CCCOc1cc(N)ccc1C(=O)OCCN(CC)CC` [Propoxycaine hydrochloride], the Z-score is listed as −0.3049.

With `CC(C)NCC(O)COc1cccc2ccccc12` (centres unmarked) [Propranolol hydrochloride], the Z-score was found to be 2.05.

`CCCc1cc(=O)[nH]c(=S)[nH]1` [Propylthiouracil] registered a Z-score of −0.0857.

Take `C[C@@H]1O[C@@H](O[C@@H]2C=C3CC[C@@H]4[C@H](CC[C@]5(C)[C@@H](c6ccc(=O)oc6)CC[C@]45O)[C@@]3(C)CC2)[C@H](O)[C@H](O)[C@H]1O` [Proscillaridin A]: the Z-score is reported as −1.0698.

For the molecule `CC[C@@H](C)C(=O)O[C@H]1[C@H](O)[C@H]2[C@@H](CN3C[C@@H](C)CC[C@H]3[C@@]2(C)O)[C@@H]2C[C@]34O[C@]5(O)[C@@H](OC(=O)[C@@](C)(O)CC)CC[C@@]3(C)[C@@H]5[C@@H](OC(C)=O)[C@@H](OC(C)=O)[C@H]4[C@@]21O` [Protoveratrine A], the Z-score came to 1.895.

`CNCCCC1c2ccccc2C=Cc2ccccc21` [Protriptyline hydrochloride] had a Z-score of −0.1298.

Consider `CC(O)Cn1cnc2c1c(=O)n(C)c(=O)n2C` (centres unmarked) [Proxyphylline], for which the Z-score is −0.7317.

Regarding `CN1[C@@H]2CCC[C@H]1CC(=O)C2.Cl` [Pseudopelletierine hydrochloride], the Z-score was found to be 0.1911.

In turn, `COc1ccc(C[C@H](N)C(=O)N[C@H]2[C@@H](O)[C@H](n3cnc4c(N(C)C)ncnc43)O[C@@H]2CO)cc1` [Puromycin dihydrochloride] returned a Z-score of 74.4112.

Consider `NC(=O)c1cnccn1` [Pyrazinamide], for which the Z-score was −1.0312.

`Cc1ncc(CO)c(CO)c1O.Cl` [Pyridoxine hydrochloride] showed a Z-score of 1.366.

Consider `COc1ccc(CN(CCN(C)C)c2ccccn2)cc1` [Pyrilamine maleate], for which the Z-score is recorded as −1.3015.

In turn, `CCc1nc(N)nc(N)c1-c1ccc(Cl)cc1` [Pyrimethamine] returned a Z-score of 2.959.

In turn, `CCC1(CC)C(=O)C=CNC1=O` [Pyrithyldione] registered a Z-score of 0.5042.

As for `O.O.O=c1c(O)c(-c2ccc(O)c(O)c2)oc2cc(O)cc(O)c12` [Quercetine dihydrate], the Z-score is given as −0.8659.

`CCN(CC)CCCC(C)Nc1c2ccc(Cl)cc2nc2ccc(OC)cc12` (centres unmarked) [Quinacrine dihydrochloride dihydrate] had a Z-score of 0.141.

`CCC1NC(=O)c2cc(S(N)(=O)=O)c(Cl)cc2N1` (centres unmarked) [Quinethazone] came in with a Z-score of −0.4993.

For the molecule `O=C(O)[C@]1(O)C[C@@H](O)[C@@H](O)[C@H](O)C1` [Quinic acid], the Z-score came out at 1.0976.

`C=C[C@H]1C[N@@]2CC[C@H]1C[C@@H]2[C@@H](O)c1ccnc2ccc(OC)cc12` [Quinidine hydrochloride monohydrate]: the Z-score is on record as 6.798.

In turn, `CC(=O)SCC(Cc1ccccc1)C(=O)NCC(=O)OCc1ccccc1` (centres unmarked) [Racecadotril] came in with a Z-score of 0.516.

`O=C(c1ccc(OCCN2CCCCC2)cc1)c1c(-c2ccc(O)cc2)sc2cc(O)ccc12` [Raloxifene hydrochloride] showed a Z-score of −0.8574.

Consider `CCOC(=O)[C@H](CCc1ccccc1)N[C@@H](C)C(=O)N1[C@H](C(=O)O)C[C@@H]2CCC[C@@H]21` [Ramipril], for which the Z-score came out at 1.188.

Molecule `CNC(=C[N+](=O)[O-])NCCSCc1ccc(CN(C)C)o1` [Ranitidine hydrochloride] displayed a Z-score of −0.5642.

For the molecule `COC(=O)[C@H]1[C@H]2C[C@H]3c4[nH]c5ccccc5c4CCN3C[C@H]2CC[C@@H]1O` [Rauwolscine hydrochloride], the Z-score is recorded as −0.7161.

`CCN1CCC[C@H]1CNC(=O)c1c(OC)ccc(Br)c1OC` [Remoxipride Hydrochloride] registered a Z-score of −0.4559.

`CCOc1cc(CC(=O)N[C@@H](CC(C)C)c2ccccc2N2CCCCC2)ccc1C(=O)O` [Repaglinide]: the Z-score is listed as −0.2231.

For the molecule `COC(=O)[C@H]1[C@H]2C[C@@H]3c4[nH]c5cc(OC)ccc5c4CCN3C[C@H]2C[C@@H](OC(=O)/C=C/c2cc(OC)c(OC)c(OC)c2)[C@@H]1OC` [Rescinnamin], the Z-score is listed as 1.097.

Consider `COC(=O)[C@H]1[C@H]2C[C@@H]3c4[nH]c5cc(OC)ccc5c4CCN3C[C@H]2C[C@@H](OC(=O)c2cc(OC)c(OC)c(OC)c2)[C@@H]1OC` [Reserpine], for which the Z-score is given as −0.083.

As to `COc1ccc2c3c([nH]c2c1)[C@H]1C[C@H]2[C@H](C[C@@H](O)[C@H](OC)[C@H]2C(=O)O)CN1CC3.Cl` [Reserpinic acid hydrochloride], the Z-score is −1.3417.

Molecule `Oc1ccc(C=Cc2cc(O)cc(O)c2)cc1` [Resveratrol] showed a Z-score of 11.669.

The molecule `CC1=C(/C=C/C(C)=C/C=C/C(C)=C/C(=O)O)C(C)(C)CCC1` [Retinoic acid] gave a Z-score of −0.7042.

For `NC(=O)c1ncn([C@@H]2O[C@H](CO)[C@@H](O)[C@H]2O)n1` [Ribavirin], the Z-score is reported as −1.5081.

The molecule `Cc1cc2nc3c(=O)[nH]c(=O)nc-3n(C[C@H](O)[C@H](O)[C@H](O)CO)c2cc1C` [Riboflavine] registered a Z-score of 0.1165.

The molecule `NC[C@H]1O[C@H](O[C@H]2[C@H](O[C@@H]3O[C@H](CO)[C@@H](O)[C@H]3O)[C@@H](O)[C@H](N)C[C@@H]2N)[C@H](N)[C@@H](O)[C@@H]1O` [Ribostamycin sulfate salt] showed a Z-score of −0.4737.

On to `COc1ccn(C)c(=O)c1C#N` [Ricinine], for which the Z-score is listed as −1.4299.

In turn, `CO[C@H]1/C=C/O[C@@]2(C)Oc3c(C)c(O)c4c(c3C2=O)C2=NC3(CCN(CC(C)C)CC3)NC2=C(NC(=O)/C(C)=C\C=C\[C@H](C)[C@H](O)[C@@H](C)[C@@H](O)[C@@H](C)[C@H](OC(C)=O)[C@@H]1C)C4=O` [Rifabutin] returned a Z-score of 1.521.

Regarding `CO[C@H]1/C=C/O[C@@]2(C)Oc3c(C)c(O)c4c(O)c(c(/C=N/N5CCN(C)CC5)c(O)c4c3C2=O)NC(=O)/C(C)=C\C=C\[C@H](C)[C@H](O)[C@@H](C)[C@@H](O)[C@@H](C)[C@H](OC(C)=O)[C@@H]1C` [Rifampicin], the Z-score was −0.5227.

For the molecule `C1COC(NC(C2CC2)C2CC2)=N1` [Rilmenidine hemifumarate], the Z-score is reported as −1.0936.

For the molecule `CCC(=O)[C@@]1(C)[C@H](C)C[C@H]2[C@@H]3CCC4=CC(=O)C=C[C@]4(C)[C@H]3[C@@H](O)C[C@@]21C` [Rimexolone], the Z-score is reported as −0.4134.

`Cc1nc2n(c(=O)c1CCN1CCC(c3noc4cc(F)ccc34)CC1)CCCC2` [Risperidone] yielded a Z-score of −0.0533.

`CC(NCCc1ccc(O)cc1)C(O)c1ccc(O)cc1` (centres unmarked) [Ritodrine hydrochloride] returned a Z-score of 0.3787.

Regarding `COc1ccc(C2CNC(=O)C2)cc1OC1CCCC1` (centres unmarked) [Rolipram], the Z-score is recorded as −0.7794.

Molecule `CN(C)[C@@H]1C(O)=C(C(=O)NCN2CCCC2)C(=O)[C@@]2(O)C(O)=C3C(=O)c4c(O)cccc4[C@@](C)(O)[C@H]3C[C@@H]12` [Rolitetracycline] came in with a Z-score of −0.3523.

The molecule `Cn1c([N+](=O)[O-])cnc1COC(N)=O` [Ronidazole] registered a Z-score of 1.5256.

`O=[N+]([O-])c1cc([As](=O)(O)O)ccc1O` [Roxarsone] had a Z-score of −0.5936.

As for `CC[C@H]1OC(=O)[C@H](C)[C@@H](O[C@H]2C[C@@](C)(OC)[C@@H](O)[C@H](C)O2)[C@H](C)[C@@H](O[C@@H]2O[C@H](C)C[C@H](N(C)C)[C@H]2O)[C@](C)(O)C[C@@H](C)/C(=N\OCOCCOC)[C@H](C)[C@@H](O)[C@]1(C)O` [Roxithromycin], the Z-score is recorded as −1.026.

Take `CCN(CC)C(=O)N[C@H]1C[C@@H]2c3cccc4[nH]cc(c34)C[C@H]2N(C)C1.O=C(O)/C=C\C(=O)O` [S(−)-terguride hydrogen maleate]: the Z-score is −1.0498.

For `CC(C)Cc1ccc([C@H](C)C(=O)O)cc1` [S-(+)-ibuprofen], the Z-score is −1.4076.

The molecule `c1ccc2c(c1)CCCc1cc(NCCN3CCOCC3)nnc1-2` [SR-95639A] displayed a Z-score of −0.7703.

`CC(C)(C)NCC(O)c1ccc(O)c(CO)c1` (centres unmarked) [Salbutamol] yielded a Z-score of −0.9959.

For the molecule `OCc1cc(C(O)CNCCCCCCOCCCCc2ccccc2)ccc1O` (centres unmarked) [Salmeterol], the Z-score turned out to be 0.4502.

Regarding `C[C@@H]1NCCc2cc(O)c(O)cc21` [Salsolinol hydrobromide], the Z-score worked out at 0.8772.

In the case of `C[n+]1cc2c3c(ccc2c2ccc4cc5c(cc4c21)OCO5)OCO3` [Sanguinarine], the Z-score was found to be 31.0936.

Regarding `CC(C)(C)NC(=O)[C@@H]1C[C@@H]2CCCC[C@@H]2CN1C[C@@H](O)[C@H](Cc1ccccc1)NC(=O)[C@H](CC(N)=O)NC(=O)c1ccc2ccccc2n1` [Saquinavir mesylate], the Z-score is listed as 1.027.

As to `Br.C[N+]1([O-])[C@@H]2CC(OC(=O)[C@H](CO)c3ccccc3)C[C@H]1[C@@H]1O[C@@H]12` (some centres unmarked) [Scopolamin-N-oxide hydrobromide], the Z-score amounted to 0.9998.

As to `CN1[C@@H]2C[C@@H](OC(=O)[C@H](CO)c3ccccc3)C[C@H]1[C@@H]1O[C@@H]12` [Scopolamine hydrochloride], the Z-score is on record as 0.9672.

Regarding `COc1cc2ccc(=O)oc2cc1O` [Scopoletin], the Z-score came to 0.6027.

Consider `COc1cc2c(cc1O)[C@@H]1Cc3ccc(OC)c(O)c3CN1CC2` [Scoulerine], for which the Z-score is reported as 19.9884.

The molecule `O=C1C=C2C=C[C@@H]3C[C@@]2(O1)[C@H]1CCCCN31` [Securinine] came in with a Z-score of −0.5036.

Consider `C#CCN(C)[C@H](C)Cc1ccccc1` [Selegiline hydrochloride], for which the Z-score is 2.279.

As for `C=C1C/C(=C/C)C(=O)O[C@@H]2CCN3CC=C(COC(=O)[C@]1(C)O)[C@H]23` [Seneciphylline], the Z-score is −1.7519.

In turn, `NCCc1c[nH]c2ccc(O)cc12` [Serotonin hydrochloride] showed a Z-score of −0.8664.

The molecule `Clc1ccc(C(Cn2ccnc2)OCc2csc3c(Cl)cccc23)c(Cl)c1` (centres unmarked) [Sertaconazole nitrate] displayed a Z-score of −0.4658.

Values taken from US9393221B2, “Methods and compounds for reducing intracellular lipid storage” (THE GENERAL HOSPITAL CORPORATION, priority 2011, dated 2016).
